# Measurements from US20060069132A1, “Azolecarboxamide herbicides” (priority 2004, published 2006).
# Read-outs that look alike come from different tables or passages of the source.
# Columns and labels:
# [1] = tested on: pigweed; test: Test C pre-/postemergence herbicide test; type: in vivo, Amaranthus retroflexus; conditions: for Plant response rating (0 = no effect, 100 = complete control), Pigweed: 62 g ai/ha; for Plant response rating (0 = no effect, 100 = complete control), Pigweed / Plant response rating, Pigweed: preemergence
# Summary of the method: (§1)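 Seeds were planted and sprayed preemergence with test chemicals in a non-phytotoxic solvent mixture containing surfactant; postemergence treatments went onto plants 2 to 18 cm tall (1- to 4-leaf stage). After 12 to 14 days in a greenhouse, injury was rated visually against untreated controls on a 0–100 scale.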
# [2] = tested on: common ragweed; test: Test C pre-/postemergence herbicide test; type: in vivo, Ambrosia elatior; design: key to Plant response rating, Ragweed: 0 = no effect, 100 = complete control; conditions: for Plant response rating (0 = no effect, 100 = complete control), Ragweed: 62 g ai/ha; for Plant response rating (0 = no effect, 100 = complete control), Ragweed / Plant response rating, Ragweed: preemergence
# Summary of the method: as §1
# [3] = tested on: wild oat; test: Test B postemergence herbicide test; type: in vivo, Avena fatua; conditions: Postemergence, scale 0 (no effect) to 100 (complete control); for Plant response rating, Oat, Wild: 500 g ai/ha, visual rating after 13 to 15 days
# Summary of the method: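 Read-out: visual comparison with controls, scored 0 to 100, where 100 means complete control and 0 no effect. Formulated chemicals were applied postemergence to plants 2–18 cm tall (1- to 4-leaf), or to flooded-paddy plants at the 2-leaf stage, then held 13 to 15 days under glass.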
# [4] = tested on: lambsquarters; test: Test C pre-/postemergence herbicide test; type: in vivo, Chenopodium album; conditions: for Plant response rating (0 = no effect, 100 = complete control), Lambsquarters: 62 g ai/ha; for Plant response rating (0 = no effect, 100 = complete control), Lambsquarters / Plant response rating, Lambsquarters: preemergence
# Summary of the method: as §1
# [5] = tested on: goosegrass; test: Test C pre-/postemergence herbicide test; type: in vivo, Eleusine indica; conditions: for Plant response rating (0 = no effect, 100 = complete control), Goosegrass: 62 g ai/ha; for Plant response rating (0 = no effect, 100 = complete control), Goosegrass / Plant response rating, Goosegrass: preemergence
# Summary of the method: as §1
# [6] = tested on: morningglory; test: Test A pre-/postemergence herbicide test; type: in vivo, Ipomoea spp.; conditions: for pest or weed control at 500 g/ha / pest or weed control at 2000 g/ha: Ipomoea, 240 h
# Summary of the method: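 Seeds sown in sandy loam received a preemergence directed soil spray of compound in non-phytotoxic solvent with surfactant; postemergence plants (2–10 cm, one- to two-leaf stage) were sprayed to runoff at the same time. After ~10 days in greenhouse, injury was rated visually versus untreated controls (0 = no effect, 100 = complete control).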
# [7] = tested on: large crabgrass; test: Test C pre-/postemergence herbicide test; type: in vivo, Digitaria sanguinalis; conditions: for Plant response rating (0 = no effect, 100 = complete control), Crabgrass, Large: 62 g ai/ha; for Plant response rating (0 = no effect, 100 = complete control), Crabgrass, Large / Plant response rating, Crabgrass, Large: preemergence
# Summary of the method: as §1
# [8] = tested on: kochia; test: Test C pre-/postemergence herbicide test; type: in vivo, Kochia scoparia; conditions: for Plant response rating (0 = no effect, 100 = complete control), Kochia: 62 g ai/ha; for Plant response rating (0 = no effect, 100 = complete control), Kochia / Plant response rating, Kochia: preemergence
# Summary of the method: as §1
# [9] = tested on: pigweed; test: Test B pre-/postemergence herbicide test; type: in vivo, Amaranthus retroflexus
# Summary of the method: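 Visual rating, 0 (no effect) to 100 (complete control), versus untreated controls after 13–15 d in greenhouse. Pre- and postemergence applications (postemergence plants 2–18 cm, 1–4 leaves); flooded paddy arm at 2-leaf stage. Compounds in non-phytotoxic solvent plus surfactant.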
# [10] = Preemergence, 500 g ai/ha, scale 0 to 100, 0 no effect, 100 complete control
# [11] = 125 g ai/ha, scale 0 (no effect) to 100 (complete control), visual, 12 to 14 days
# [12] = 250 g ai/ha, scale 0 to 100 (0 no effect, 100 complete control), visual, 12 to 14 days
compound,measurement,setting,value
"CCn1nc(C(C)(C)C)cc1C(=O)Nc1cc(C(=O)N(C)C)ccc1F [Compound 6, N-[5-[(dimethylamino)carbonyl]-2-fluorophenyl]-3-(1,1-dimethylethyl)-1-ethyl-1H-pyrazole-5-carboxamide]","Plant response rating (0 = no effect, 100 = complete control), Pigweed",[1],100
same,pest or weed control at 250 g/ha,"[1]; Amaranthus retroflexus, pre-emergence, 250 g ai/ha, scale 0 to 100 (0 no effect, 100 complete control), visual, 12 to 14 days, read-out: Plant response rating, Pigweed",100%
same,Pigweed plant response rating,[1]; [10],100
same,"Plant response rating (0 = no effect, 100 = complete control), Ragweed",[2],100
same,pest or weed control at 250 g/ha,"[2]; Ambrosia artemisiifolia, pre-emergence, 250 g ai/ha, scale 0 to 100 (0 no effect, 100 complete control), visual, 12 to 14 days, read-out: Plant response rating, Ragweed",100%
same,Ragweed plant response rating,[2]; [10],100
same,pest or weed control at 125 g/ha,"[3]; Avena fatua, post-emergence, 336 h, 125 g ai/ha, read-out: Oat, Wild plant response rating",10%
same,"Plant response rating, Oat, Wild",[3],70
same,"Plant response rating (0 = no effect, 100 = complete control), Lambsquarters",[4],100
same,pest or weed control at 125 g/ha,"[4]; Chenopodium album, pre-emergence, 125 g ai/ha, scale 0-100, read-out: Plant response rating, Lambsquarters",100%
same,pest or weed control at 250 g/ha,"[4]; Chenopodium album, pre-emergence, 250 g ai/ha, scale 0 to 100 (0 no effect, 100 complete control), visual, 12 to 14 days, read-out: Plant response rating, Lambsquarters",100%
same,Lambsquarters plant response rating,[4]; [10],100
same,"Plant response rating (0 = no effect, 100 = complete control), Goosegrass",[5],85
same,pest or weed control at 125 g/ha,"[5]; Eleusine indica, pre-emergence, 312 h, 125 g ai/ha, scale 0-100, read-out: Plant response rating, Goosegrass",100%
same,pest or weed control at 250 g/ha,"[5]; Eleusine indica, pre-emergence, 312 h, 250 g ai/ha, scale 0 to 100 (0 no effect, 100 complete control), visual, 12 to 14 days, read-out: Plant response rating, Goosegrass",100%
same,Goosegrass plant response rating,[5]; [10],100
same,pest or weed control at 500 g/ha,"[6]; post-emergence, Postemergence, 500 g ai/ha, 0 to 100 scale, 0 no effect, 100 complete control, read-out: Plant response rating, Morningglory",10%
same,pest or weed control at 2000 g/ha,"[6]; post-emergence, Postemergence, 2000 g ai/ha, 0 to 100 scale, 0 no effect, 100 complete control, read-out: Plant response rating, Morningglory",30%
same,pest or weed control at 500 g/ha,"[6]; pre-emergence, Preemergence, 500 g ai/ha, visual rating, 0 to 100 scale (0 no effect, 100 complete control), read-out: Morningglory plant response rating",45%
same,pest or weed control at 2000 g/ha,"[6]; pre-emergence, Preemergence, 2000 g ai/ha, 0 to 100 scale, 0 no effect, 100 complete control, read-out: Morningglory plant response rating",80%
same,"Plant response rating (0 = no effect, 100 = complete control), Crabgrass, Large",[7],75
same,pest or weed control at 125 g/ha,"[7]; Digitaria sanguinalis, pre-emergence, 312 h, 125 g ai/ha, scale 0-100, read-out: Plant response rating, Crabgrass, Large",95%
same,pest or weed control at 250 g/ha,"[7]; Digitaria sanguinalis, pre-emergence, 312 h, 250 g ai/ha, scale 0 to 100 (0 no effect, 100 complete control), visual, 12 to 14 days, read-out: Plant response rating, Crabgrass, Large",95%
same,"Crabgrass, Large plant response rating",[7]; [10],100
same,"Plant response rating (0 = no effect, 100 = complete control), Kochia",[8],100
same,pest or weed control at 125 g/ha,"[8]; Bassia scoparia, pre-emergence, 125 g ai/ha, scale 0-100, read-out: Plant response rating, Kochia",100%
same,pest or weed control at 250 g/ha,"[8]; Bassia scoparia, pre-emergence, 250 g ai/ha, scale 0 to 100 (0 no effect, 100 complete control), visual, 12 to 14 days, read-out: Plant response rating, Kochia",100%
same,Kochia plant response rating,[8]; [10],100
same,pest or weed control at 125 g/ha,"[9]; Amaranthus retroflexus, post-emergence, 336 h, Postemergence, 125 g ai/ha, scale 0 (no effect) to 100 (complete control), read-out: Pigweed plant response rating",20%
same,pest or weed control at 500 g/ha,"[9]; Amaranthus retroflexus, post-emergence, 336 h, Postemergence, 500 g ai/ha, visual rating after 13 to 15 days, scale 0 (no effect) to 100 (complete control), read-out: Plant response rating, Pigweed",70%
same,pest or weed control at 500 g/ha,"[9]; Amaranthus retroflexus, pre-emergence, 336 h, Preemergence, 500 g ai/ha, scale 0 to 100, read-out: Pigweed plant response rating",100%
CCCCn1nc(C(C)(C)C)cc1C(=O)Nc1cccc(C(=O)NCC)c1 [Compound 41],"Plant response rating, Pigweed","[1]; 31 g ai/ha, scale 0 to 100",0
same,"Plant response rating (0 = no effect, 100 = complete control), Pigweed",[1],0
same,"Plant response rating, Pigweed",[1]; [11],90
same,"Plant response rating, Pigweed",[1]; [12],100
same,"Plant response rating, Ragweed","[2]; 31 g ai/ha, scale 0 to 100",0
same,"Plant response rating (0 = no effect, 100 = complete control), Ragweed",[2],0
same,"Plant response rating, Ragweed",[2]; [11],0
same,"Plant response rating, Ragweed",[2]; [12],10
same,"Oat, Wild plant response rating",[3]; 125 g ai/ha,10
same,"Plant response rating, Oat, Wild",[3],10
same,"Plant response rating, Lambsquarters","[4]; 31 g ai/ha, scale 0 to 100",0
same,"Plant response rating (0 = no effect, 100 = complete control), Lambsquarters",[4],50
same,"Plant response rating, Lambsquarters",[4]; [11],90
same,"Plant response rating, Lambsquarters",[4]; [12],100
same,"Plant response rating, Goosegrass","[5]; 31 g ai/ha, scale 0 to 100",10
same,"Plant response rating (0 = no effect, 100 = complete control), Goosegrass",[5],20
same,"Plant response rating, Goosegrass",[5]; [11],30
same,"Plant response rating, Goosegrass",[5]; [12],40
same,"Plant response rating, Morningglory","[6]; Postemergence, 500 g ai/ha, 0 to 100 scale, 0 no effect, 100 complete control",10
same,"Plant response rating, Morningglory","[6]; Postemergence, 2000 g ai/ha, 0 to 100 scale, 0 no effect, 100 complete control",10
same,Morningglory plant response rating,"[6]; Preemergence, 500 g ai/ha, visual rating, 0 to 100 scale (0 no effect, 100 complete control)",20
same,Morningglory plant response rating,"[6]; Preemergence, 2000 g ai/ha, 0 to 100 scale, 0 no effect, 100 complete control",45
same,"Plant response rating, Crabgrass, Large","[7]; 31 g ai/ha, scale 0 to 100",0
same,"Plant response rating (0 = no effect, 100 = complete control), Crabgrass, Large",[7],90
same,"Plant response rating, Crabgrass, Large",[7]; [11],100
same,"Plant response rating, Crabgrass, Large",[7]; [12],100
same,"Plant response rating, Kochia","[8]; 31 g ai/ha, scale 0 to 100",0
same,"Plant response rating (0 = no effect, 100 = complete control), Kochia",[8],20
same,"Plant response rating, Kochia",[8]; [11],20
same,"Plant response rating, Kochia",[8]; [12],30
same,"Plant response rating, Pigweed","[9]; Postemergence, 500 g ai/ha, visual rating after 13 to 15 days, scale 0 (no effect) to 100 (complete control)",70
same,Pigweed plant response rating,"[9]; Preemergence, 500 g ai/ha, scale 0 to 100",70
same,"Plant response rating, Pigweed","[9]; preemergence, 125 g ai/ha, 0 to 100 scale, 0 is no effect, 100 is complete control",70
